Measured values as given in US20070015174A1, “High throughput formulation screening of drug candidates” (priority 2005, published 2007).
≈ marks a conversion by molar mass, not a printed value. Where two headings read alike, the source gives them in different places.

Key:
[1] = cited from earlier work
[2] = High throughput formulation screening: solubility of compound in 96 formulations (5 μL scale, image capture); format: physicochemical; conditions: for solubility: thermodynamic from solid
Experimental: The solubility of the compound in the various excipients is then evaluated by comparing the captured images (e.g., first, second, third, and fourth images). […] All stock solutions were prepared with ultrapure ASTM Type I water and sterile-filtered using a 0.22 micron filter. The solutions were then attached to the MATRIX MAKER liquid-handling robot for sterile path, positive pressure dispensation into an SBS (Society for Biomolecular Screening) standard-sized 96 deep well plates. The screening formulations are defined in the CRYSTAL MINER software, which drives the MATRIX MAKER and allows for the rapid development of refinement screens for the optimization of lead hits. Once the formulations have been dispensed, the plate is sealed and centrifuged at 2000 rpm to ensure that each well contains a homogeneous solution. […] The DROP MAKER micro-scale liquid handler then dispenses 5 μL of the compound solution into a 96-well SBS format plate. […] Images were then captured of each well by the CRYSTAL MONITOR workstation (Session 1). Then 5 μL of each formulation screening solution were added to separate wells and images were captured for each well (Session 2) as above. Following image capture, the plate was heated to 45° C. for 30 minutes, then agitated for 10 minutes at room temperature during cool down. Additional images are captured on day one (t=1, Session 3) and day three (t=3, Session 4). Images and data annotation are exported to Excel for final report generation. The solubility of triclocarban in the formulations screening set (96 conditions) was obtained after the high throughput screening at target solubility of 10 mg/mL by the method described above: […]

For `O=C(Nc1ccc(Cl)cc1)Nc1ccc(Cl)c(Cl)c1` [TCC, 3,4,4′-trichlorocarbanilide], the solubility ([1]; 20% RMbCD with additives) is listed as “about 5 mg/mL”, the “solubility in organic solvents” value ([1]; acetone) is listed as “soluble” and the “solubility in organic solvents” value ([1]; propylene glycol) is listed as “to some extent”. For the same compound, the “intrinsic solubility (S0)” value ([1]; pure water, room temperature) was “less than 50 ng/ml”, the solubility in water ([1]; water) was “water-insoluble” and the solubility in formulation ([2]; 10 mg/mL, IV dosing solution PEG 300/polysorbate 80/EtOH/SGF (40/5/5/50)) was “nearly completely dissolved”. For the same compound, the solubility in formulation ([2]; 10 mg/mL, IV dosing solution PEG 300/polysorbate 80/SGF (45/5/50)) was “nearly completely dissolved”, the solubility in formulation ([2]; 10 mg/mL, NMP/polysorbate 80 (9/1)) was “easily dissolved” and the solubility in formulation ([2]; 10 mg/mL, PEG 300/polysorbate 80 (9/1)) was “easily dissolved”. The solubility in formulation ([2]; 10 mg/mL, PEG 400/polysorbate 80/EtOH (8/1/1)) was “easily dissolved”, the solubility in formulation ([2]; 10 mg/mL, PEG 400/polysorbate (3/1)) was “easily dissolved” and the solubility in formulation ([2]; 10 mg/mL, SEDDS carpryol 90/PEG 400/cremophor EL (4/3/3)) was “dissolved”. For the same compound, the solubility in formulation ([2]; 10 mg/mL, SEDDS labrafac CC/imwitor 988/cremophor (25/27/48)) was “dissolved”, the solubility in formulation ([2]; 10 mg/mL, SEDDS sesame oil/maisine 35-1/polysorbate 80 (25/27/48)) was “dissolved” and the solubility in formulation ([2]; 10 mg/mL, SEDDS soybean oil/maisine 35-1/polysorbate 80/EtOH (35/20/35/10)) was “dissolved”. For the same compound, the solubility in formulation ([2]; 10 mg/mL, cosolvent PEG 400/EtOH (7/3)) was “easily dissolved”, the solubility in formulation ([2]; 10 mg/mL, cosolvent PEG 400/EtOH/PG (4/1/5)) was “easily dissolved” and the solubility ([2]; Carpryol 90 (formulation screening solution), oil or lipid, target 10 mg/mL, Carpryol 90) was ~10000 µg/mL (≈ 31.7 mM). It also gave a solubility ([2]; Cremophor EL (formulation screening solution), aqueous with cosolvent or surfactant or cyclodextrin, target 10 mg/mL, Cremophor EL) of ~10000 µg/mL (≈ 31.7 mM), a solubility ([2]; Labrafil M 1944 CS (formulation screening solution), oil or lipid, target 10 mg/mL, Labrafil M 1944 CS) of ~10000 µg/mL (≈ 31.7 mM) and a solubility ([2]; Labrasol (formulation screening solution), aqueous with cosolvent or surfactant or cyclodextrin, target 10 mg/mL, Labrasol) of ~10000 µg/mL (≈ 31.7 mM). The solubility ([2]; N-methyl-2-pyrrolidinone (formulation screening solution), organic solvent or mixture, target 10 mg/mL, N-methyl-2-pyrrolidinone) was ~10000 µg/mL (≈ 31.7 mM), the solubility ([2]; Softigen 767 (formulation screening solution), aqueous with cosolvent or surfactant or cyclodextrin, target 10 mg/mL, Softigen 767) was ~10000 µg/mL (≈ 31.7 mM) and the solubility ([2]; lauroglycol FCC (formulation screening solution), oil or lipid, target 10 mg/mL, lauroglycol FCC) was ~10000 µg/mL (≈ 31.7 mM). The solubility ([2]; peppermint oil (formulation screening solution), oil or lipid, target 10 mg/mL, peppermint oil) was ~10000 µg/mL (≈ 31.7 mM), the solubility in formulation ([2]; target 10 mg/mL, 20% TPGS) was “partially dissolved” and the solubility in formulation ([2]; target 10 mg/mL, 20% povidone) was “neither glycerine, safflower oil, sesame oil, nor 20% povidone had any effect”. For the same compound, the solubility in formulation ([2]; target 10 mg/mL, Capmul MCM C8) was “dissolve TCC completely”, the solubility in formulation ([2]; target 10 mg/mL, HPbCD) was “partially dissolved” and the solubility in formulation ([2]; target 10 mg/mL, Imwitor 988) was “dissolve TCC completely”. For the same compound, the solubility in formulation ([2]; target 10 mg/mL, PEG 300) was “dissolve TCC completely”, the solubility in formulation ([2]; target 10 mg/mL, PEG 400) was “dissolve TCC completely” and the solubility in formulation ([2]; target 10 mg/mL, Polysorbate 80) was “dissolve TCC completely”. The solubility in formulation ([2]; target 10 mg/mL, RMbCD) was “partially dissolved”, the solubility in formulation ([2]; target 10 mg/mL, adjustment of pH to between 2 and 10) was “no effect” and the solubility in formulation ([2]; target 10 mg/mL, corn oil) was “partially dissolved”. The solubility in formulation ([2]; target 10 mg/mL, dimethylacetamide) was “dissolve TCC completely”, the solubility in formulation ([2]; target 10 mg/mL, glycerine) was “neither glycerine, safflower oil, sesame oil, nor 20% povidone had any effect” and the solubility in formulation ([2]; target 10 mg/mL, imwitor 380) was “partially dissolved”. The solubility in formulation ([2]; target 10 mg/mL, labrafac CC) was “partially dissolved”, the solubility in formulation ([2]; target 10 mg/mL, maisine 35-1) was “partially dissolved” and the solubility in formulation ([2]; target 10 mg/mL, neobee M-5) was “partially dissolved”. The solubility in formulation ([2]; target 10 mg/mL, oleic acid) was “partially dissolved”, the solubility in formulation ([2]; target 10 mg/mL, safflower oil) was “neither glycerine, safflower oil, sesame oil, nor 20% povidone had any effect” and the solubility in formulation ([2]; target 10 mg/mL, sesame oil) was “neither glycerine, safflower oil, sesame oil, nor 20% povidone had any effect”. For the same compound, the solubility in formulation ([2]; target 10 mg/mL, soybean oil) was “partially dissolved”.
